Test results from ChEMBL document CHEMBL1139660, “Imidazo[1,2-b][1,2,4]triazines as alpha2/alpha3 subtype selective GABA A agonists for the treatment of anxiety” (Bioorg Med Chem Lett, 2006).
pKi: −log10 of the molar value.

Legend:
[1] = molecular target: T1, GABA-A receptor; alpha-5/beta-3/gamma-2 (Homo sapiens, UniProt P18507+P28472+P31644); experiment: Displacement of [3H]Ro 15-1788 from recombinant human GABA-Aalpha5 receptor plus beta-3-gamma-2 expressed in L(tk-) cells; type: cell-based
T1 sequence (P18507 whole entry): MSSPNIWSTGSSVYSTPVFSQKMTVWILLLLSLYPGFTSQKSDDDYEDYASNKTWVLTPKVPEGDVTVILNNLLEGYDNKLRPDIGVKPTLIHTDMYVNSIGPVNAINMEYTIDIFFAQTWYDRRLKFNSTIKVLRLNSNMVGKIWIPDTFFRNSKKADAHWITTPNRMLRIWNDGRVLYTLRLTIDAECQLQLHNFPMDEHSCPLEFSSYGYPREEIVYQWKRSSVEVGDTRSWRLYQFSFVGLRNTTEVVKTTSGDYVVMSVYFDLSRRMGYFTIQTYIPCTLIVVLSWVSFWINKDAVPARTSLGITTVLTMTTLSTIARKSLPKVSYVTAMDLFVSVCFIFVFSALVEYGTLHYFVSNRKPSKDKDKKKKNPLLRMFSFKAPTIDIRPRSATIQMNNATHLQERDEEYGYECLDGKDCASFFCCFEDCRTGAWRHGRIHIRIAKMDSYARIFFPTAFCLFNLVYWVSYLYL
T1 sequence (P28472 whole entry): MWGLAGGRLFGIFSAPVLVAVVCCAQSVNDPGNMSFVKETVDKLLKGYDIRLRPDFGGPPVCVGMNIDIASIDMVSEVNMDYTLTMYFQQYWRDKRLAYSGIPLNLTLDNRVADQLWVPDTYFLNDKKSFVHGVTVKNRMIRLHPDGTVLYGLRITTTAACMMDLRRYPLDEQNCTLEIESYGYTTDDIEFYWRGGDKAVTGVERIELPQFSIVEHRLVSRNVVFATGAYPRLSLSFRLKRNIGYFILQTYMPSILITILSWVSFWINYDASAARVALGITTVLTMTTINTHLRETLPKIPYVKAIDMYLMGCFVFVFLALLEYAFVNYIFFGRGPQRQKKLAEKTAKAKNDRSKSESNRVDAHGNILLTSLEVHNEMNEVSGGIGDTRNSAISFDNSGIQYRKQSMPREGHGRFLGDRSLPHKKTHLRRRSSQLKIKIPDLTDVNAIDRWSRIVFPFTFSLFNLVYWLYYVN
T1 sequence (P31644 whole entry): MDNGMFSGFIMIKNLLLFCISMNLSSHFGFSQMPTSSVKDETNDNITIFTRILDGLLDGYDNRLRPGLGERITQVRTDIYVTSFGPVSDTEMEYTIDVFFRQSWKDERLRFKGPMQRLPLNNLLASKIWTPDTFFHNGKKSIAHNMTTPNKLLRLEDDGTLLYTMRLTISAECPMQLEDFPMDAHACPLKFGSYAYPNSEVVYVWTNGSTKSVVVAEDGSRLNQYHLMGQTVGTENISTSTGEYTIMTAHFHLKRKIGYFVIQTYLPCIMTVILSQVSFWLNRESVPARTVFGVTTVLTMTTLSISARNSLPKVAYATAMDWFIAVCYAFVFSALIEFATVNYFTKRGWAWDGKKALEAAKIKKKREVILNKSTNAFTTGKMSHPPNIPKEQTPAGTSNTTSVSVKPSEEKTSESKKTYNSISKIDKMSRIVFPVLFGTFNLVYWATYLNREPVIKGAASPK

[2] = molecular target: T2, GABA-A receptor; alpha-1/beta-3/gamma-2 (Homo sapiens, UniProt P14867+P18507+P28472); experiment: Displacement of [3H]Ro 15-1788 from recombinant human GABA-Aalpha1 receptor plus beta3gamma2 expressed in mouse L(tk-) cells; type: cell-based
T2 sequence (P14867 whole entry): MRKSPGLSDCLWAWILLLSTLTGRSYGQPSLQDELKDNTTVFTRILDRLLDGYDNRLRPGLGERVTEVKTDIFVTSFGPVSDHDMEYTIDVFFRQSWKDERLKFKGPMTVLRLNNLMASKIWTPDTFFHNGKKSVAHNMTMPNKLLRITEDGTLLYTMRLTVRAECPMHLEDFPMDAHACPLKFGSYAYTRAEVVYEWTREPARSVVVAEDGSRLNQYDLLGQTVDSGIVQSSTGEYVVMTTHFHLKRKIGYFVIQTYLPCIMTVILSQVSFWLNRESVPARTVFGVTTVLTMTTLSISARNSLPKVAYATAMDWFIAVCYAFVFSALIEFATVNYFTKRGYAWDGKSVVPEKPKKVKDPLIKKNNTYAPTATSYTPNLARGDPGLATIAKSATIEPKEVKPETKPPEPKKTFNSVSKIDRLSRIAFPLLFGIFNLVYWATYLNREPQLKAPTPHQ
T2 sequence (P18507 whole entry): T1 sequence (P18507 whole entry)
T2 sequence (P28472 whole entry): T1 sequence (P28472 whole entry)

[3] = molecular target: T3, GABA-A receptor; alpha-2/beta-3/gamma-2 (Homo sapiens, UniProt P18507+P28472+P47869); experiment: Displacement of [3H]Ro 15-1788 from recombinant human GABA-Aalpha2 receptor plus beta-3-gamma-2 expressed in mouse L(tk-) cells; type: cell-based
T3 sequence (P18507 whole entry): T1 sequence (P18507 whole entry)
T3 sequence (P28472 whole entry): T1 sequence (P28472 whole entry)
T3 sequence (P47869 whole entry): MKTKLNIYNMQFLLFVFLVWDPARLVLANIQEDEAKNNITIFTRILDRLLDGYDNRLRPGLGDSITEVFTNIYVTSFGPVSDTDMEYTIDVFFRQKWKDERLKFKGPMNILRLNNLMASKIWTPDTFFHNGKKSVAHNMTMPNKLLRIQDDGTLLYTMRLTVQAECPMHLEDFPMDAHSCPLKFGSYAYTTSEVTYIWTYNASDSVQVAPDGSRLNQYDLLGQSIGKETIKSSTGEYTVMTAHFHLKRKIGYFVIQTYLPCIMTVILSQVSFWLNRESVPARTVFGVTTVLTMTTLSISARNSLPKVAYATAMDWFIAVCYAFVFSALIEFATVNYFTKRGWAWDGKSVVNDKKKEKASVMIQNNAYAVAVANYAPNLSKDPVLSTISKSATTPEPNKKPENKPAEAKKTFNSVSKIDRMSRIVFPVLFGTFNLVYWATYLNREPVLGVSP

[4] = molecular target: T4, GABA-A receptor; alpha-3/beta-3/gamma-2 (Homo sapiens, UniProt P18507+P28472+P34903); experiment: Displacement of [3H]Ro 15-1788 from recombinant human GABA-Aalpha3 receptor plus beta-3-gamma-2 expressed in L(tk-) cells; type: cell-based
T4 sequence (P18507 whole entry): T1 sequence (P18507 whole entry)
T4 sequence (P28472 whole entry): T1 sequence (P28472 whole entry)
T4 sequence (P34903 whole entry): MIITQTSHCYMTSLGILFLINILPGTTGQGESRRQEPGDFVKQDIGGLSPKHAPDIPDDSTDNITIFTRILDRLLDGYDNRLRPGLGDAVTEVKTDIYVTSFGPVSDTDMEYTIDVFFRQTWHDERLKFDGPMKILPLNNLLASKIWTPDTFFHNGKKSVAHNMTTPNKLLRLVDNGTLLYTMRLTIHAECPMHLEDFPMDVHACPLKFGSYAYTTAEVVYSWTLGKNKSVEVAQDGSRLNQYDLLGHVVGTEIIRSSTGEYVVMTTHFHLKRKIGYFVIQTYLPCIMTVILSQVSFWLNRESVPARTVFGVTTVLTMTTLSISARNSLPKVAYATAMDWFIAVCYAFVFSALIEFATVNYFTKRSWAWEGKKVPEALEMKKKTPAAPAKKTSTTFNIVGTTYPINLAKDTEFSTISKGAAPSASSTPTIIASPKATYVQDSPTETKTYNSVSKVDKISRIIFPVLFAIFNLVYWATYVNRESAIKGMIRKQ

[5] = molecular target: T5, GABA-A receptor; alpha-1/beta-3/gamma-2 (Homo sapiens) (UniProt P14867+P18507+P28472); experiment: Efficacy against recombinant human GABA-Aalpha1 receptor plus beta-3-gamma-2 expressed in L(tk-) cells by whole cell patch clamp method; type: functional, cell-based
[6] = molecular target: T6, GABA-A receptor; alpha-3/beta-3/gamma-2 (Homo sapiens) (UniProt P18507+P28472+P34903); experiment: Efficacy against recombinant human GABA-Aalpha3 receptor plus beta-3-gamma-2 expressed in L(tk-) cells by whole cell patch clamp method relative to chlordiazepoxide; type: functional, cell-based
[7] = molecular target: GABA-A receptor; alpha-2/beta-3/gamma-2 (Homo sapiens) (UniProt P18507+P28472+P47869); experiment: Efficacy against recombinant human GABA-Aalpha2 receptor plus beta-3-gamma-2 expressed in L(tk-) cells by whole cell patch clamp method relative to chlordiazepoxide; type: functional, cell-based
[8] = molecular target: GABA-A receptor; alpha-5/beta-3/gamma-2 (Homo sapiens) (UniProt P18507+P28472+P31644); experiment: Efficacy against recombinant human GABA-Aalpha5 receptor plus beta3gamma2 expressed in L(tk-) cells by whole cell patch clamp method relative to chlordiazepoxide; type: functional, cell-based
[9] = Oral bioavailability in Sprague-Dawley rat at 1 mg/kg, iv or 1 mg/kg, po; type: ADME, organism-based; details: in vivo
Rattus norvegicus = experiment: Plasma clearance in Sprague-Dawley rat at 1 mg/kg, iv or 1 mg/kg, po; type: organism-based
[10] = Half life in Sprague-Dawley rat at 1 mg/kg, iv or 1 mg/kg, po; type: ADME, organism-based; details: in vivo
[11] = Volume of distribution in Sprague-Dawley rat at 1 mg/kg, iv or 1 mg/kg, po; type: ADME, organism-based; details: in vivo, read-out: Vdss
[12] = Oral bioavailability in Beagle dog at 1 mg/kg, iv or 1 mg/kg, po; type: ADME, organism-based, Canis lupus familiaris; details: in vivo
[13] = Plasma clearance in Beagle dog at 1 mg/kg, iv or 1 mg/kg, po; type: ADME, organism-based, Canis lupus familiaris
[14] = Half life in Beagle dog at 1 mg/kg, iv or 1 mg/kg, po; type: ADME, organism-based, Canis lupus familiaris; details: in vivo
[15] = Volume of distribution in Beagle dog at 1 mg/kg, iv or 1 mg/kg, po; type: ADME, organism-based, Canis lupus familiaris; details: in vivo, read-out: Vdss
[16] = molecular target: T5, GABA-A receptor; alpha-1/beta-3/gamma-2 (Homo sapiens); experiment: Efficacy against recombinant human GABA-Aalpha1 receptor plus beta-3-gamma-2 expressed in L(tk-) cells by modulation of chloride ion flux relative to chlordiazepoxide; type: cell-based
[17] = molecular target: T6, GABA-A receptor; alpha-3/beta-3/gamma-2 (Homo sapiens); experiment: Efficacy against recombinant human GABA-Aalpha3 receptor plus beta-3-gamma-2 expressed in L(tk-) cells by modulation of chloride ion flux relative to chlordiazepoxide; type: functional, cell-based

SMILES	pKi [1]	pKi [2]	pKi [3]	pKi [4]	Efficacy [5]	Efficacy [6]	Efficacy [7]	Efficacy [8]	bioavailability [9] [%]	CL (mL.min-1.kg-1) (Rattus norvegicus)	half-life [10] [h]	Vd [11] [L/kg]	bioavailability [12] [%]	clearance [13] [mL/min/kg]	half-life [14] [h]	Vd [15] [L/kg]	Efficacy [16]	Efficacy [17]
CC(C)(O)c1cnn2c(-c3ccc(F)c(-c4ccncc4C#N)c3)cnc2n1	9.49	9.12	8.81	8.97	0	0.37	0.23	0.41										
CC(C)(O)c1cnn2c(-c3ccc(F)c(-c4ncccc4C#N)c3)cnc2n1	8.03	8.89	8.07	8.02	0.01	0.69	0.37	0.2	102	2.4	7.9	1.7	99	2.2	9.7	1.5		
CC(C)(O)c1ccn2c(-c3ccc(F)c(-c4ncccc4C#N)c3)cnc2n1	9.17	8.84		8.44													0.26	0.52
CC(C)(O)c1cnn2c(-c3ccc(F)c(-c4ccncc4)c3)cnc2n1	9.30	9.26	9.04	9.28	0.06													
CC(C)(O)c1ccn2c(-c3ccc(F)c(-c4ncc(F)cc4F)c3)cnc2n1	8.95	8.75		8.42													0.18	0.21
CC(C)(O)c1ccn2c(-c3ccc(F)c(-c4ncccc4F)c3)cnc2n1	8.91	9.10		9.38													0.44	0.68
CC(C)(O)c1cnn2c(-c3ccc(F)c(-c4ncc(F)cc4F)c3)cnc2n1	8.57	9.17	8.46	8.35	0	0.5	0.39	0.09	69	1.2	22	2.2	64	0.5		2.3		
